Source: the supplement of paper PMC10307832

Compound: CC(C)CCN1c2nc(Nc3cc(F)c(O)c(F)c3)ncc2N(C)C(=O)C1C [BI-D1870] + Cc1nc(Nc2ncc(C(=O)Nc3c(C)cccc3Cl)s2)cc(N2CCN(CCO)CC2)n1 [Dasatinib] (partner 0.075 µM)
Assay: relative viability (nuclei count vs DMSO), 5 days (fraction); higher = more cells survive
Settings: first compound 0.04 µM
In short: (§1)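 Relative viability was taken as the ratio of nuclei in treated wells to nuclei in vehicle wells. Lung cancer cell lines in 1536-well plates received compounds by pin tool one day after seeding, either one drug alone or a fixed anchor-drug dose plus five library-drug doses (not always all listed) in √10 steps. Nuclei were counted on 4× images after 5 days of treatment, and values are medians of duplicate plates.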

Cell Line	relative viability
NCI-H727	0.432
NCI-H1650	0.266
NCI-H1993	0.663
SW 1573	0.625
NCI-H838	0.342
LCLC-103H	0.537
NCI-H520	0.207
NCI-H2126	0.575
EMC-BAC-2	0.344
NCI-H2085	0.246
HCC-366	0.633
NCI-H1666	0.839
NCI-H596	0.633
LK-2	0.442
NCI-H2087	0.93
SK-MES-1	0.44
H3255	0.436
COR-L23	0.58
COR-L 105	0.303
LOU-NH91	0.582
ChaGo-K-1	0.662
NCI-H2170	0.735
HCC-78	0.362
NCI-H1792	0.841
NCI-H1563	0.456

Same assay, conditions: first compound 0.1265 µM

Cell Line	relative viability
NCI-H2342	0.313
NCI-H1623	0.581
NCI-H727	0.34
NCI-H1650	0.393
NCI-H1993	0.48
SW 1573	0.456
NCI-H838	0.244
LCLC-103H	0.38
NCI-H520	0.189
NCI-H2126	0.6
EMC-BAC-2	0.326
NCI-H2085	0.246
HCC-366	0.528
NCI-H1666	0.84
NCI-H596	0.475
LK-2	0.359
NCI-H2087	0.798
SK-MES-1	0.369
H3255	0.458
COR-L23	0.414
COR-L 105	0.294
LOU-NH91	0.527
ChaGo-K-1	0.516
NCI-H2170	0.584
HCC-78	0.382
NCI-H1792	0.68
NCI-H1563	0.434

Same assay, conditions: first compound 0.4 µM

Cell Line	relative viability
NCI-H2342	0.315
NCI-H1623	0.527
NCI-H727	0.27
NCI-H1650	0.32
NCI-H1993	0.697
SW 1573	0.594
NCI-H838	0.314
LCLC-103H	0.454
NCI-H520	0.235
NCI-H2126	0.55
EMC-BAC-2	0.377
NCI-H2085	0.222
HCC-366	0.603
NCI-H1666	0.701
NCI-H596	0.597
LK-2	0.239
NCI-H2087	0.921
SK-MES-1	0.323
H3255	0.367
COR-L23	0.504
COR-L 105	0.485
LOU-NH91	0.516
ChaGo-K-1	0.606
NCI-H2170	0.529
HCC-78	0.422
NCI-H1792	0.599
NCI-H1563	0.425

Same assay, conditions: first compound 1.265 µM

Cell Line	relative viability
NCI-H2342	0.329
NCI-H1623	0.473
NCI-H727	0.417
NCI-H1650	0.281
NCI-H1993	0.868
SW 1573	0.472
NCI-H838	0.274
LCLC-103H	0.469
NCI-H520	0.198
NCI-H2126	0.548
EMC-BAC-2	0.316
NCI-H2085	0.239
HCC-366	0.731
NCI-H1666	0.824
NCI-H596	0.684
LK-2	0.241
NCI-H2087	0.891
SK-MES-1	0.362
H3255	0.433
COR-L23	0.565
COR-L 105	0.322
LOU-NH91	0.595
ChaGo-K-1	0.549
NCI-H2170	0.54
HCC-78	0.442
NCI-H1792	0.829
NCI-H1563	0.506

Same assay, conditions: first compound 4 µM

Cell Line	relative viability
NCI-H2342	0.406
NCI-H1623	0.452
NCI-H727	0.312
NCI-H1650	0.273
NCI-H1993	0.467
SW 1573	0.213
NCI-H838	0.243
LCLC-103H	0.469
NCI-H520	0.186
NCI-H2126	0.483
EMC-BAC-2	0.296
NCI-H2085	0.281
HCC-366	0.427
NCI-H1666	0.744
NCI-H596	0.564
LK-2	0.281
NCI-H2087	0.743
SK-MES-1	0.3
H3255	0.48
COR-L23	0.434
COR-L 105	0.384
LOU-NH91	0.458
ChaGo-K-1	0.51
NCI-H2170	0.575
HCC-78	0.33
NCI-H1792	0.645
NCI-H1563	0.477

Compound: CC(C)CCN1c2nc(Nc3cc(F)c(O)c(F)c3)ncc2N(C)C(=O)C1C [BI-D1870] + O=C(CCCCCCC(=O)Nc1ccccc1)NO [Vorinostat] (partner 1 µM)
Assay: as above
Settings: first compound 0.04 µM
In short: as §1

Cell Line	relative viability
NCI-H2342	0.806
NCI-H727	1.32
NCI-H1650	0.613
NCI-H1993	0.763
SW 1573	1.07
NCI-H838	0.719
LCLC-103H	0.886
NCI-H520	0.716
NCI-H2126	0.802
EMC-BAC-2	0.495
NCI-H2085	0.828
HCC-366	0.502
NCI-H1666	1.03
NCI-H596	0.666
LK-2	0.351
NCI-H2087	0.634
NCI-H1648	0.345
SK-MES-1	1.16
H3255	0.88
COR-L23	0.615
COR-L 105	0.804
IA-LM	1.02
LOU-NH91	0.991
ChaGo-K-1	0.8
NCI-H2170	1.01
HCC-44	1.14
HCC-78	0.438

Same assay, conditions: first compound 0.1265 µM

Cell Line	relative viability
NCI-H2342	0.61
NCI-H727	1.22
NCI-H1650	0.425
NCI-H1993	0.689
SW 1573	0.6
NCI-H838	0.643
LCLC-103H	0.719
NCI-H520	0.755
NCI-H2126	0.718
EMC-BAC-2	0.519
NCI-H2085	0.733
HCC-366	0.331
NCI-H1666	1.01
NCI-H596	0.591
LK-2	0.391
NCI-H2087	0.595
NCI-H1648	0.333
SK-MES-1	0.905
H3255	0.816
COR-L23	0.402
COR-L 105	0.837
IA-LM	0.927
LOU-NH91	0.859
ChaGo-K-1	0.703
NCI-H2170	0.786
HCC-44	1.07
HCC-78	0.408

Same assay, conditions: first compound 0.4 µM

Cell Line	relative viability
NCI-H2342	0.718
NCI-H727	0.986
NCI-H1650	0.646
NCI-H1993	0.767
SW 1573	0.99
NCI-H838	0.682
LCLC-103H	0.786
NCI-H520	0.649
NCI-H2126	0.719
EMC-BAC-2	0.397
NCI-H2085	0.709
HCC-366	0.294
NCI-H1666	0.942
NCI-H596	0.65
LK-2	0.468
NCI-H2087	0.96
SK-MES-1	0.933
H3255	0.761
COR-L23	0.494
COR-L 105	0.77
IA-LM	0.913
LOU-NH91	0.876
ChaGo-K-1	0.711
NCI-H2170	0.786
HCC-44	1.16
HCC-78	0.392

Same assay, conditions: first compound 1.265 µM

Cell Line	relative viability
NCI-H2342	0.812
NCI-H727	1.19
NCI-H1650	0.595
NCI-H1993	1.1
SW 1573	0.619
NCI-H838	0.68
LCLC-103H	0.755
NCI-H520	0.464
NCI-H2126	0.735
EMC-BAC-2	0.461
NCI-H2085	0.781
HCC-366	0.316
NCI-H1666	0.956
NCI-H596	0.59
LK-2	0.277
NCI-H2087	0.92
NCI-H1648	0.626
SK-MES-1	0.949
H3255	0.889
COR-L23	0.5
COR-L 105	0.875
IA-LM	1.08
LOU-NH91	0.858
ChaGo-K-1	0.72
NCI-H2170	0.783
HCC-44	1.14
HCC-78	0.497

Same assay, conditions: first compound 4 µM

Cell Line	relative viability
NCI-H2342	0.966
NCI-H727	1.08
NCI-H1650	0.577
NCI-H1993	0.631
SW 1573	0.448
NCI-H838	0.558
LCLC-103H	0.535
NCI-H520	0.198
NCI-H2126	0.578
EMC-BAC-2	0.413
NCI-H2085	0.509
HCC-366	0.1
NCI-H1666	1.02
NCI-H596	0.511
LK-2	0.279
NCI-H2087	0.849
NCI-H1648	0.697
SK-MES-1	0.691
H3255	0.802
COR-L23	0.269
COR-L 105	0.765
IA-LM	0.874
LOU-NH91	0.655
ChaGo-K-1	0.641
NCI-H2170	0.675
HCC-44	1.14
HCC-78	0.381
